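Interpolation was linear, between the two tested concentrations surrounding the appropriate level; five concentrations were tested over 48 hours in 96-well plates. Definition used: TGI = concentration required for complete inhibition of growth.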
Legend:
Test in all cases: NCI-60 cell line screen, 48 h
[1] = system: NCI/ADR-RES ovarian
[2] = system: NCI-H522 lung
[3] = system: SW-620 colon
[4] = system: CCRF-CEM leukemia
[5] = system: HT29 colon
[6] = system: PC-3 prostate
[7] = system: NCI-H226 lung
[8] = system: EKVX NSCLC
[9] = system: MCF7 breast
[10] = system: NCI-H460 lung

Compound	TGI [1]	TGI [2]	TGI [3]	TGI [4]	TGI [5]	TGI [6]	TGI [7]	TGI [8]	TGI [9]	TGI [10]
N=C(N)SCc1nc(-c2ccc(Cl)cc2)no1	> 100 µM	25.1 µM	37.2 µM	31.8 µM	29.3 µM	37.5 µM	> 100 µM	89.4 µM	30.1 µM	> 100 µM
O=C(CCCCCNC(=O)c1ccc(Cl)cc1)NO	5.07 µM	15.2 µM	> 100 µM	> 100 µM	> 100 µM	9 µM	71.2 µM	> 100 µM	> 100 µM	39.6 µM
O=C(O)C(Cc1ccccc1)Cc1ccccc1	> 100 µM	> 100 µM	> 100 µM	> 100 µM	> 100 µM	> 100 µM	> 100 µM	> 100 µM	> 100 µM	> 100 µM
CCCCCCCCCCCC(=O)N(CCCCCCCCC)CC(O)C(O)C(OC1OC(CO)C(O)C(O)C1O)C(O)CO (stereo not given)	38.7 µM	44.1 µM	35.1 µM	41 µM	34.4 µM	39.2 µM	37.8 µM	31.5 µM	> 100 µM	35.6 µM
C1=CC2C(C3CN(c4ccccc4)N=C13)C1C3C4C=CC21C=CC43 (stereo not given)	> 100 µM	> 100 µM	> 100 µM	> 100 µM	> 100 µM	> 100 µM	> 100 µM	> 100 µM	> 100 µM	> 100 µM
CCOc1ccccc1N=NC1C(=O)N(C(=O)CC(=O)Nc2ccccc2C)N=C1C (stereo not given)	> 100 µM	> 100 µM	> 100 µM	> 100 µM	> 100 µM	> 100 µM	> 100 µM	43.7 µM	> 100 µM	> 100 µM
CC1(C)CCCCCC(O)C(O)CCC(C)(C)C1=O (stereo not given)	> 100 µM	> 100 µM	> 100 µM	> 100 µM	> 100 µM	> 100 µM	> 100 µM	> 100 µM	> 100 µM	> 100 µM
C=C1c2c(n(S(=O)(=O)c3ccccc3)c3ccccc23)[C@@]2(C(=O)OC)CC3C=CC2N1C3	> 100 µM	> 100 µM	> 100 µM	> 100 µM	> 100 µM	> 100 µM	> 100 µM	> 100 µM	> 100 µM	> 100 µM
COc1ccc(/C(=N/O)c2ccccc2C2=Nc3ccccc3C(NCc3ccccc3)O2)cc1C (stereo not given)	> 100 µM	> 100 µM	> 100 µM	> 100 µM	> 100 µM	> 100 µM	> 100 µM	> 100 µM	> 100 µM	> 100 µM
NC(=Nc1ccccc1)N/N=C/c1c[nH]c2ccccc12	0.455 µM	0.306 µM	5.02 µM	41 µM	1.54 µM	12.1 µM	16.1 µM	25 µM	15 µM	4.41 µM
CSc1nnnc2ccccc12	> 100 µM	> 100 µM	> 100 µM	> 100 µM	> 100 µM	> 100 µM	> 100 µM	> 100 µM	> 100 µM	> 100 µM
COc1cc(C(c2ccccc2)N2C(=O)CC[C@H]2C(=O)O)cc(OC)c1OC (stereo not given in full)	> 100 µM	> 100 µM	> 100 µM	> 100 µM	> 100 µM	> 100 µM	> 100 µM	> 100 µM	> 100 µM	> 100 µM
CC1(C)C2CC3C(C)(C2)C31c1cc(Cl)ccc1N (stereo not given)	29.5 µM	19.7 µM	28.2 µM	33.4 µM	27.6 µM	27 µM	34.6 µM	33 µM	26.7 µM	28.9 µM
CCOc1ccc2c(c1)C(/C(C(Cl)=C(Cl)Cl)=[N+](/[O-])OC(=O)c1ccccc1)=N2	> 100 µM	> 100 µM	> 100 µM	> 100 µM	> 100 µM	> 100 µM	> 100 µM	> 100 µM	> 100 µM	> 100 µM
O=C1C(c2ccccc2)=C(c2ccccc2)C1(Cl)Cl	> 27 µM	4.51 µM	9.77 µM	3.96 µM	13.6 µM	14.3 µM	10.1 µM	21.7 µM	9.92 µM	20.8 µM
O=c1oc2ccccc2c(O)c1C(c1ccc(OCc2ccccc2)cc1)c1c(O)c2ccccc2oc1=O	> 100 µM	> 100 µM	> 100 µM	> 100 µM	> 100 µM	> 100 µM	> 100 µM	> 100 µM	> 100 µM	> 100 µM

Compound	TGI [1]	TGI [2]	TGI [3]	TGI [4]	TGI [5]	TGI [6]	TGI [7]	TGI [8]	TGI [9]	TGI [10]
Cc1cnc2c(c1)C(=O)N(c1ccc(Oc3ccccc3)cc1)S2(=O)=O	> 100 µM	> 100 µM	> 100 µM	> 100 µM	> 100 µM	> 100 µM	> 100 µM	> 100 µM	> 100 µM	> 100 µM
CCOP(=O)(OCC)/C(=C/n1c(=S)[nH]c2ccccc21)C(=O)OC	> 100 µM	> 100 µM	> 100 µM	> 100 µM	> 100 µM	> 100 µM	> 100 µM	> 100 µM	> 100 µM	> 31.6 µM
N#Cc1c(/C=C/c2ccccc2)c2c([nH]c1=S)CCCCC2	> 100 µM	> 100 µM	> 100 µM	> 100 µM	> 100 µM	> 100 µM	> 100 µM	> 100 µM	> 100 µM	> 100 µM
CC(C)OC1=C(CC2(C)OCCO2)C(=O)C12OCCO2	> 100 µM	> 100 µM	> 100 µM	> 100 µM	> 100 µM	> 100 µM	> 100 µM	> 100 µM	> 100 µM	> 100 µM
CCC[N+](C)(C)CCCNC(=O)c1c(O)c2ccccc2[nH]c1=O	> 100 µM	> 100 µM	> 100 µM	> 100 µM	> 100 µM	> 100 µM	> 100 µM	> 100 µM	> 100 µM	> 100 µM
N=C1C=CC(=C(c2ccc(N)cc2)c2ccc(N)cc2)C=C1	49.3 µM	12.8 µM	19.2 µM	19.5 µM	14.3 µM	12.4 µM	18.2 µM	51.4 µM	13.2 µM	36.9 µM
C[Si](C)(C)OC1(C#N)c2ccccc2CCCC12CCCC2 (stereo not given)	> 100 µM	77.7 µM	> 100 µM	46 µM	> 100 µM	> 100 µM	> 100 µM	> 100 µM	> 100 µM	> 100 µM
COCC(C#N)NC1CC(OC2CC(O)(C(=O)CO)Cc3c(O)c4c(c(O)c32)C(=O)c2c(OC)cccc2C4=O)OC(C)C1O (stereo not given)	16 µM	0.193 µM	4.8 µM	1.69 µM	9.03 µM	1.2 µM	0.117 µM	4.62 µM	0.836 µM	0.189 µM
CC(=O)NC1C(OCc2ccccc2)OC(CO)C(O)C1OC(C)C(=O)NC(C(=O)NC(CCC(=O)NCCCNc1ccc([N+](=O)[O-])c2[nH]c3ccccc3c(=O)c12)C(N)=O)C(C)C (stereo not given)	> 100 µM	> 100 µM	> 100 µM	> 100 µM	> 100 µM	> 100 µM	> 100 µM	> 100 µM	> 100 µM	> 100 µM
CCOC(=O)Cc1[nH]c(C(=O)c2ccccc2)cc1C(=O)c1ccccc1	> 100 µM	> 100 µM	> 100 µM	> 10 µM	> 10 µM	> 10 µM	65.8 µM	> 100 µM	> 10 µM	> 100 µM
COC(=O)NC(Cc1ccccc1)NC(=O)OC(C)(C)C (stereo not given)	> 100 µM	> 100 µM	> 100 µM	> 100 µM	> 100 µM	> 100 µM	> 100 µM	> 100 µM	> 100 µM	> 100 µM
CC1(C)CC(=O)c2c(N)n[nH]c2C1	> 100 µM	> 100 µM	> 100 µM	> 100 µM	> 100 µM	> 100 µM	> 100 µM	> 100 µM	> 100 µM	> 100 µM
OC(CCN1CCN(CCOC(c2ccccc2)c2ccccc2)CC1)c1ccccc1 (stereo not given)	73.1 µM	32.7 µM	> 100 µM	> 100 µM	33.5 µM	65.5 µM	88.2 µM	45.8 µM	47.4 µM	35.7 µM
COC(=O)N[C@@H]1C[C@H]2CC[C@]1(O[Si](C(C)C)(C(C)C)C(C)C)C(=O)C2	35.4 µM	24 µM	> 100 µM	> 100 µM	47.8 µM	33.9 µM	33 µM	31.8 µM	> 100 µM	> 100 µM
Clc1nc2nc(N3CCNCC3)nc(N3CCCC3)c2[nH]1	> 100 µM	33.7 µM	45.4 µM	41 µM	34.2 µM	33.9 µM	> 100 µM	31.8 µM	32.2 µM	32.7 µM
COc1cc2nc(-c3cccs3)nc(Nc3ccccc3C(=O)NN)c2cc1OC	> 100 µM	> 100 µM	> 100 µM	> 100 µM	> 100 µM	> 100 µM	> 100 µM	> 100 µM	> 100 µM	> 100 µM

— PubChem BioAssay (NCI)
